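Grown in 96-well plates, cells were treated for 48 hours with each compound at five concentrations. Insufficient inhibition: endpoint recorded as highest concentration tested. TGI marks complete inhibition of growth.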
Experiments:
Assay in all cases: growth of human tumour cells (NCI), 48 h
[1] = system: SK-OV-3 ovarian
[2] = system: HCT-15 colon
[3] = system: MDA-MB-231 breast
[4] = system: PC-3 prostate
[5] = system: KM12 colon
[6] = system: OVCAR-8 ovarian
[7] = system: HS 578T breast
[8] = system: HT29 colon
[9] = system: HCT-116 colon
[10] = system: SK-MEL-2 melanoma
[11] = system: CAKI-1 renal
[12] = system: SF-268 CNS
[13] = system: RPMI-8226 leukemia
[14] = system: SF-295 CNS
[15] = system: T-47D breast
[16] = system: OVCAR-4 ovarian
[17] = system: COLO 205 colon
[18] = system: UACC-62 melanoma
[19] = system: K-562 leukemia
[20] = system: OVCAR-3 ovarian
[21] = system: SN12C renal
[22] = system: U251 CNS
[23] = system: MOLT-4 leukemia
[24] = system: NCI-H226 lung
[25] = system: HOP-62 NSCLC
[26] = system: RXF 393 renal
[27] = system: SNB-19 CNS
[28] = system: NCI-H460 lung
[29] = system: SNB-75 CNS
[30] = system: OVCAR-5 ovarian
[31] = system: SK-MEL-28 melanoma
[32] = system: MALME-3M melanoma
[33] = system: NCI/ADR-RES ovarian
[34] = system: HCC-2998 colon
[35] = system: MCF7 breast
[36] = system: 786-0 renal
[37] = system: SW-620 colon
[38] = system: BT-549 breast
[39] = system: A549 NSCLC
[40] = system: A498 renal
[41] = system: UACC-257 melanoma
[42] = system: M14 melanoma
[43] = system: EKVX NSCLC
[44] = system: UO-31 renal
[45] = system: MDA-MB-435
[46] = system: ACHN renal
[47] = system: NCI-H23 lung
[48] = system: SF-539 CNS
[49] = system: CCRF-CEM leukemia

CCOc1ccc(N/C(=C(/C(Cl)=C(/Cl)NC(C)(C)C)[N+](=O)[O-])n2nnc3ccccc32)cc1
TGI [1]: > 100 µM
TGI [2]: 39 µM
TGI [3]: 37.6 µM
TGI [4]: 83.5 µM
TGI [5]: 61.7 µM
TGI [6]: 32.3 µM
TGI [7]: 32.6 µM
TGI [8]: > 100 µM
TGI [9]: 33.7 µM
TGI [10]: > 100 µM
TGI [11]: 35.3 µM
TGI [12]: 42.7 µM
TGI [13]: > 100 µM
TGI [14]: 78.8 µM
TGI [15]: 32 µM
TGI [16]: > 100 µM
TGI [17]: 36.1 µM
TGI [18]: 65.3 µM
TGI [19]: > 100 µM
TGI [20]: 72.2 µM
TGI [21]: > 100 µM
TGI [22]: 35.1 µM
TGI [23]: > 100 µM
TGI [24]: > 100 µM
TGI [25]: > 100 µM
TGI [26]: 41.8 µM
TGI [27]: > 100 µM
TGI [28]: > 100 µM
TGI [29]: 54 µM
TGI [30]: > 100 µM
TGI [31]: 38.8 µM
TGI [32]: 33.3 µM
TGI [33]: > 100 µM
TGI [34]: > 100 µM
TGI [35]: 65.1 µM
TGI [36]: 36.7 µM
TGI [37]: 41.9 µM
TGI [38]: 41.5 µM
TGI [39]: > 100 µM
TGI [40]: > 100 µM
TGI [41]: > 100 µM
TGI [42]: > 100 µM
TGI [43]: > 100 µM
TGI [44]: > 100 µM
TGI [45]: 33.6 µM
TGI [46]: > 100 µM
TGI [47]: 55.6 µM
TGI [48]: 57.6 µM
TGI [49]: > 100 µM
